Columns and labels:
[1] = system: Wnt activity (Sp5-Luc reporter, human Sp5 promoter with eight TCF/LEF binding sites) in SW480 colon carcinoma cells; assay: Screening assay for Wnt activity: Sp5-Luc reporter gene assay in SW480 cells; format: cell-based; details: for inhibition at 10 µM: read-out: percent inhibition at 10 μM (given for EC50 of >10 μM); for EC50: 10-point dose-response starting from 10 μM, overnight incubation
How it was run: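 Luminescence (BrightGlo) read after overnight 37 °C exposure of Sp5-Luc SW480 reporter cells, 4,000/well in 1% FBS, to compound dosed 1:3 over 10 points from 10 μM with 0.1% DMSO. Values normalized to DMSO-only cells, fitted with variable-slope four-parameter model; where EC50 exceeds 10 μM, % inhibition at 10 μM reported.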

[2] = system: primary human mesenchymal stem cells (hMSCs); assay: Induction of chondrogenesis in primary human mesenchymal stem cells (hMSCs), nodule imaging with Rhodamine B / Nile Red; format: cell-based; details: for Emax: hMSCs chondrogenesis, TGF-β3 (10 ng/mL) as positive control, read-out: Max. Activity as % TGF-β3 activity; for EC50: hMSCs, concentration required to induce 50% levels of chondrogenesis vs TGF-β3 positive control, read-out: Conc (nM) of 50% TGF-β3 activity
Experimental: Representative compounds were screened using primary human mesenchymal stem cells (hMSCs) to determine their ability to induce chondrogenesis (process by which cartilage is developed).
Human Mesenchymal Stem Cell Culture: Primary human mesenchymal stem cells (hMSCs) were purchased from Lonza (Walkersville, Md.) and expanded in Mesenchymal Stem Cell Growth Media (Lonza). Cells between passage 3 and 6 were used for the experiments.
Compound Screening: Each compound was dissolved in DMSO as a 10 mM stock and used to prepare compound source plates. For the 96 well assay, serial dilution (1:3, 6-point dose-response curves from 2700 nM to 10 nM) and compound transfer was performed using the ECHO 550 (Labcyte, Sunnyvale, Calif.) into 96-well clear bottom assay plates (Greiner Bio-One) with appropriate DMSO backfill for a final DMSO concentration of 0.03%. hMSCs were plated at 20,000 cells/well in 250 μL/well Incomplete Chondrogenic Induction Medium (Lonza; DMEM, dexamethasone, ascorbate, insulin-transferrin-selenium [ITS supplement], gentamycin-amphotericin [GA-1000], sodium pyruvate, proline and L-glutamine). TGF-β3 (10 ng/mL) was used as a positive control for differentiation while negative control wells were treated with 75 nL DMSO for normalization and calculating EC50 values. For the 384 well assay, serial dilution (1:3, 8-point dose-response curves from 5000 nM to 2.2 nM) and compound transfer was performed using the ECHO 550 (Labcyte, Sunnyvale, Calif.) into 384-well clear bottom assay plates (Greiner Bio-One) with appropriate DMSO backfill for a final DMSO concentration of 0.03%. hMSCs were plated at 8,000 cells/well in 80 μL/well Incomplete Chondrogenic Induction Medium (Lonza; DMEM, dexamethasone, ascorbate, insulin-transferrin-selenium [ITS supplement], gentamycin-amphotericin [GA-1000], sodium pyruvate, proline and L-glutamine). TGF-β3 (10 ng/mL) was used as a positive control for differentiation while negative control wells were treated with 25 nL DMSO for normalization and calculating EC50 values. Cells were incubated at 37° C. and 5% CO2 for 6 days. To image chondrogenic nodules, the cells were fixed using 4% formaldehyde (Electron Microscopy Sciences), and stained with 2 μg/mL Rhodamine B (Sigma-Aldrich) and 20 μM Nile Red (Sigma-Aldrich) [Johnson K., et.al, A Stem Cell-Based Approach to Cartilage Repair, Science, (2012), 336(6082). 717-721]. The nodules imaged (25 images per well for 96 well plates and 9 images per well for 384 well plates at 10× magnification) by excitation at 531 nm and emission at 625 nm and quantified using the CellInsight CX5 (Thermo Scientific). Area of nodules in each well was normalized to the average of 3 DMSO treated wells on the same plate using Excel (Microsoft Inc.). The normalized averages (fold change over DMSO) of 2 or 3 replicate wells for each compound concentration were calculated. Due to solubility limitations of some of the compounds, curve fitting was incomplete leading to inaccurate EC50 determinations.
Using TGF-β3 as a positive control, the concentration of representative compounds required to induce 50% levels of chondrogenesis is reported. In addition, the maximum activity of each compound and the respective dose that each compound reached maximum chondrogenesis activity is reported.

Row | Compound | inhibition at 10 µM [1] | EC50 [1] | Emax [2] | EC50 [2]
1 | CCC(=O)Nc1cncc(-c2ccc3[nH]nc(-c4nc5c(-c6cccc(F)c6)cncc5[nH]4)c3n2)c1 [Compound 1, N-(5-(3-(7-(3-Fluorophenyl)-3H-imidazo[4,5-c]pyridin-2-yl)-1H-pyrazolo[4,3-b]pyridin-5-yl)pyridin-3-yl)propionamide] | 12.3% | > 10 µM | 580% | 1670 nM
2 | CC(C)CC(=O)Nc1cncc(-c2ccc3[nH]nc(-c4nc5c(-c6cccc(F)c6)cncc5[nH]4)c3n2)c1 [Compound 2, N-(5-(3-(7-(3-Fluorophenyl)-3H-imidazo[4,5-c]pyridin-2-yl)-1H-pyrazolo[4,3-b]pyridin-5-yl)pyridin-3-yl)-3-methylbutanamide] | 43% | > 10 µM | 53% | 21 nM
3 | Fc1cccc(-c2cncc3[nH]c(-c4n[nH]c5ccc(-c6ccncc6)nc45)nc23)c1 [Compound 18, 3-(7-(3-Fluorophenyl)-3H-imidazo[4,5-c]pyridin-2-yl)-5-(pyridin-4-yl)-1H-pyrazolo[4,3-b]pyridine] | 14% | > 10 µM | 51% | 7 nM
4 | O=C(Nc1cncc(-c2ccc3[nH]nc(-c4nc5c(-c6ccc(F)cc6)cncc5[nH]4)c3n2)c1)C1CCC1 [Compound 49, N-(5-(3-(7-(4-Fluorophenyl)-3H-imidazo[4,5-c]pyridin-2-yl)-1H-pyrazolo[4,3-b]pyridin-5-yl)pyridin-3-yl)cyclobutanecarboxamide] | 44% | > 10 µM | 33% | –
5 | Fc1ccc(-c2cncc3[nH]c(-c4n[nH]c5ccc(-c6cncnc6)nc45)nc23)cc1 [Compound 55, 3-(7-(4-Fluorophenyl)-3H-imidazo[4,5-c]pyridin-2-yl)-5-(pyrimidin-5-yl)-1H-pyrazolo[4,3-b]pyridine] | 18% | > 10 µM | 125% | 100 nM
6 | Nc1cncc(-c2ccc3[nH]nc(-c4nc5c(-c6ccccc6F)cncc5[nH]4)c3n2)c1 [Compound 59, 5-(3-(7-(2-Fluorophenyl)-3H-imidazo[4,5-c]pyridin-2-yl)-1H-pyrazolo[4,3-b]pyridin-5-yl)pyridin-3-amine] | 7% | > 10 µM | 98% | 10 nM
7 | CS(=O)(=O)NCc1cc(F)cc(-c2cncc3[nH]c(-c4n[nH]c5ccc(-c6cncc(NC(=O)CC7CCNCC7)c6)nc45)nc23)c1 [Compound 725, N-(5-(3-(7-(3-Fluoro-5-(methylsulfonamidomethyl)phenyl)-3H-imidazo[4,5-c]pyridin-2-yl)-1H-pyrazolo[4,3-b]pyridin-5-yl)pyridin-3-yl)-2-(piperidin-4-yl)acetamide] | 11.2% | > 10 µM | – | –
8 | CN(C)CCNc1cc(F)cc(-c2cncc3[nH]c(-c4n[nH]c5ccc(-c6cncc(OCCN7CCCC7)c6)nc45)nc23)c1 [Compound 742, N^1-(3-Fluoro-5-(2-(5-(5-(2-(pyrrolidin-1-yl)ethoxy)pyridin-3-yl)-1H-pyrazolo[4,3-b]pyridin-3-yl)-3H-imidazo[4,5-c]pyridin-7-yl)phenyl)-N^2,N^2-dimethylethane-1,2-diamine] | 17.1% | > 10 µM | – | –
9 | COc1cccc(-c2cncc3[nH]c(-c4n[nH]c5ccc(-c6cncc(NC(=O)Cc7ccccc7)c6)nc45)nc23)c1 [Compound 955, N-(5-(3-(7-(3-methoxylphenyl)-3H-imidazo[4,5-c]pyridin-2-yl)-1H-pyrazolo[4,3-b]pyridin-5-yl)pyridin-3-yl)-2-phenylacetamide] | 21.5% | > 10 µM | – | –
10 | COc1cccc(-c2cncc3[nH]c(-c4n[nH]c5ccc(-c6cncc(NC(=O)CC(C)(C)C)c6)nc45)nc23)c1 [Compound 961, N-(5-(3-(7-(3-methoxylphenyl)-3H-imidazo[4,5-c]pyridin-2-yl)-1H-pyrazolo[4,3-b]pyridin-5-yl)pyridin-3-yl)-3,3-dimethylbutanamide] | 0% | > 10 µM | – | –
11 | COc1cccc(-c2cncc3[nH]c(-c4n[nH]c5ccc(-c6cn[nH]c6)nc45)nc23)c1 [Compound 975, 3-(7-(3-Methoxylphenyl)-3H-imidazo[4,5-c]pyridin-2-yl)-5-(1H-pyrazol-4-yl)-1H-pyrazolo[4,3-b]pyridine] | 2% | > 10 µM | – | –
12 | COc1cccc(-c2cncc3[nH]c(-c4n[nH]c5ccc(-c6cncc(OC7CCNCC7)c6)nc45)nc23)c1 [Compound 980, 3-(7-(3-Methoxylphenyl)-3H-imidazo[4,5-c]pyridin-2-yl)-5-(5-(piperidin-4-yloxy)pyridin-3-yl)-1H-pyrazolo[4,3-b]pyridine] | 25.8% | > 10 µM | – | –
13 | COc1cccc(-c2cncc3[nH]c(-c4n[nH]c5ccc(-c6cncc(O)c6)nc45)nc23)c1 [Compound 985, 5-(3-(7-(3-Methoxylphenyl)-3H-imidazo[4,5-c]pyridin-2-yl)-1H-pyrazolo[4,3-b]pyridin-5-yl)pyridin-3-ol] | 7.8% | > 10 µM | – | –
14 | NC1CN(c2cncc(-c3ccc4[nH]nc(-c5nc6c(-c7ccc(Cl)s7)cncc6[nH]5)c4n3)n2)C1 [Compound 1023, 1-(6-(3-(7-(5-Chlorothiophen-2-yl)-3H-imidazo[4,5-c]pyridin-2-yl)-1H-pyrazolo[4,3-b]pyridin-5-yl)pyrazin-2-yl)azetidin-3-amine] | 24.3% | > 10 µM | – | –
15 | c1cc2c(cc1-c1cncc3[nH]c(-c4n[nH]c5ccc(C6CCNCC6)nc45)nc13)OCO2 [Compound 1063, 3-(7-(Benzo[d][1,3]dioxol-5-yl)-3H-imidazo[4,5-c]pyridin-2-yl)-5-(piperidin-4-yl)-1H-pyrazolo[4,3-b]pyridine] | 10.5% | > 10 µM | – | –
16 | C1=C(c2ccc3[nH]nc(-c4nc5c(-c6ccc7c(c6)OCO7)cncc5[nH]4)c3n2)CCNC1 [Compound 1064, 3-(7-(Benzo[d][1,3]dioxol-5-yl)-3H-imidazo[4,5-c]pyridin-2-yl)-5-(1,2,3,6-tetrahydropyridin-4-yl)-1H-pyrazolo[4,3-b]pyridine] | 9.5% | > 10 µM | – | –
17 | Cn1cc(-c2ccc3[nH]nc(-c4nc5c(-c6ccc(F)cc6)cncc5[nH]4)c3n2)c(CO)n1 [Compound 1084, (4-(3-(7-(4-Fluorophenyl)-3H-imidazo[4,5-c]pyridin-2-yl)-1H-pyrazolo[4,3-b]pyridin-5-yl)-1-methyl-1H-pyrazol-3-yl)methanol] | 11.8% | > 10 µM | – | –
18 | Cn1cc(-c2ccc3[nH]nc(-c4nc5c(N6CCCCC6)cncc5[nH]4)c3n2)c(CO)n1 [Compound 1089, (1-Methyl-4-(3-(7-(piperidin-1-yl)-3H-imidazo[4,5-c]pyridin-2-yl)-1H-pyrazolo[4,3-b]pyridin-5-yl)-1H-pyrazol-3-yl)methanol] | 24.2% | > 10 µM | – | –
19 | Cn1cc(-c2ccc3[nH]nc(-c4nc5c(-c6ccc7c(c6)OCO7)cncc5[nH]4)c3n2)c(CO)n1 [Compound 1106, (4-(3-(7-(Benzo[d][1,3]dioxol-5-yl)-3H-imidazo[4,5-c]pyridin-2-yl)-1H-pyrazolo[4,3-b]pyridin-5-yl)-1-methyl-1H-pyrazol-3-yl)methanol] | 24.7% | > 10 µM | – | –
